Results: ChEMBL document CHEMBL5233262, “Anti-inflammatory activity of naturally occuring diarylheptanoids - A review” (Bioorg Med Chem, 2021)
≈ marks a conversion by molar mass, not a printed value. Values belong to the compound of their own block, whether it stands above or below them.

Tests used:
J774.A1 [1] = test: Antiinflammatory activity in mouse J774.A1 cells assessed as inhibition of LPS-induced TNF-alpha production at 10 microg/ml preincubated for 30 mins followed by LPS stimulation and measured after 2 hrs by Griess reagent based analysis; type: functional; settings: J774.A1, 2.5 h, time 150 min
RAW264.7 [2] = test: Antiinflammatory activity in mouse RAW264.7 cells assessed as inhibition of IFN-gamma and LPS-induced NO production incubated for 24 hrs by Griess assay; type: functional, cell-based; settings: RAW264.7, 24 h
J774.A1 [3] = test: Antiinflammatory activity in mouse J774.A1 cells assessed as inhibition of LPS-induced IL-6 production at 10 microg/ml preincubated for 30 mins followed by LPS stimulation and measured after 2 hrs by Griess reagent based analysis; type: functional; settings: J774.A1, 2.5 h, time 150 min
RAW264.7 [4] = test: Antiinflammatory activity in mouse RAW264.7 cells assessed as inhibition of LPS-induced NO production preincubated for 0.5 hrs followed by LPS stimulation and measured after 24 hrs by Griess reagent based analysis; type: functional, cell-based
RAW264.7 [5] = test: Antiinflammatory activity against mouse RAW264.7 cells assessed as inhibition of IFN-gamma and LPS-induced COX2 production preincubated for 2 hrs followed by IFN-gamma and LPS stimulation and measured after 16 hrs by spectrophotometric analysis; type: functional, cell-based
[6] = Antioxidant activity assessed as DPPH radical scavenging activity incubated for 25 mins by spectrophotometric analysis; type: functional
[7] = Antioxidant activity assessed as DPPH radical scavenging activity; type: functional
[8] = Antioxidant activity assessed as ABTS radical scavenging activity measured after 6 mins; type: functional
[9] = Antioxidant activity assessed as hydroxyl radical scavenging activity; type: functional
[10] = Antioxidant activity assessed as DPPH radical scavenging activity incubated for 30 mins by spectrophotometric analysis; type: functional
J774.A1 [11] = test: Antiinflammatory activity in mouse J774.A1 cells assessed as inhibition of LPS-induced NO production incubated for 24 hrs by Griess reagent based analysis; type: functional, cell-based; settings: J774.A1, 24 h
Rattus norvegicus [12] = test: Antiinflammatory activity against Freund's complete adjuvant-induced arthritic Wistar rat model assessed as reduction in paw volume at 5 mg/kg,po measured after 28 days; type: functional; design: scale not given: the % may be the effect or the level left; settings: time 28 day
Rattus norvegicus [13] = test: Antiinflammatory activity against Freund's complete adjuvant-induced arthritic Wistar rat model assessed as reduction in IL-6 level at 5 mg/kg,po measured after 28 days by ELISA; type: functional; design: scale not given: the % may be the effect or the level left; settings: time 28 day
Rattus norvegicus [14] = test: Antiinflammatory activity against Freund's complete adjuvant-induced arthritic Wistar rat model assessed as reduction in IL-1beta level at 5 mg/kg,po measured after 28 days by ELISA; type: functional; design: scale not given: the % may be the effect or the level left; settings: time 28 day
Rattus norvegicus [15] = test: Antiinflammatory activity in Wistar rat model of carrageenan-induced paw edema assessed as reduction in paw thickness at 10 mg/kg,po and measured after 5 hrs; type: functional; design: scale not given: the % may be the effect or the level left
Rattus norvegicus [16] = test: Antiinflammatory activity against Freund's complete adjuvant-induced arthritic Wistar rat model assessed as reduction in TNF-alpha level at 5 mg/kg,po measured after 28 days by ELISA; type: functional; design: scale not given: the % may be the effect or the level left; settings: time 28 day

IC50 (RAW264.7 [2]): 29.4 µg/mL (≈ 57.8 µM)
IC50 (RAW264.7 [4]): 10 µM
IC50 (RAW264.7 [5]): 33.7 µg/mL (≈ 66.3 µM)
SMILES: O=C(CCc1ccc(O)c(O)c1)C[C@H](CCc1ccc(O)c(O)c1)O[C@@H]1O[C@H](CO)[C@@H](O)[C@H](O)[C@H]1O
inhibition at 10 µg/mL (J774.A1 [1]): 51%
inhibition at 10 µg/mL (J774.A1 [3]): 75%

SMILES: O=C(O)c1cc(O)c(O)c(O)c1 [GALLIC ACID]
IC50 [6]: 10.4 µM

IC50 [7]: 58 µg/mL (≈ 329 µM)
IC50 [8]: 23.3 µM
IC50 [9]: 47 µg/mL (≈ 267 µM)
IC50 [10]: 24.8 µM
IC50 (J774.A1 [11]): > 100 µM
SMILES: O=C1O[C@H]([C@@H](O)CO)C(O)=C1O [ASCORBIC ACID]

SMILES: O=C(O)Cc1ccccc1Nc1c(Cl)cccc1Cl [DICLOFENAC]
Activity (Rattus norvegicus [12]): 28.3%
Activity (Rattus norvegicus [13]): 2.5%
Activity (Rattus norvegicus [14]): 7%
Activity (Rattus norvegicus [15]): 39.5%
Activity (Rattus norvegicus [16]): 47%
